US20050163814A1, “Granulated phosphoroamido(di) thioates” (priority 2002, published 2005)

Assay: GE Brightness of acephate powder
Type: physicochemical
Conditions: bulk powder, reflected light
Experimental: A sample of technical grade acephate crystals was obtained (Examples 1 and 3) and compared. […] Half of each sample was analyzed for brightness and particle size distribution.
Milling caused a measurable increase in the brightness of the bulk powder sample as measured by reflected light. Such an increase is visually apparent as a noticeably brighter powder when compared side-by-side under the GE Brightness test.

| SMILES | GE Brightness |
| --- | --- |
| COP(=O)(NC(C)=O)SC (centres unmarked) [Ex. 1, acephate, reference compound] | 87.2 |
| COP(=O)(NC(C)=O)SC (centres unmarked) [Ex. 2, acephate] | 88.4 |
